# Measured values reported in US6521608B1, “Vitamin D and its analogs in the treatment of tumors and other hyperproliferative disorders” (Oregon Health & Science University, priority 1998, dated 2003).
# Several values for one entry are separate records, joined by “and”; a condition that tells them apart may be missing. Equal values may be shown once. Read-outs that look alike come from different tables or passages of the source.
# Assays:
# [1] = Trial of weekly pulse oral calcitriol: toxicities graded by NCI Common Toxicity Criteria; type: in vivo, human
# Experimental: (§1) Eligibility criteria included histologically confirmed malignancy refractory to standard therapy; age ≧18 years; expected survival of >2 months; ECOG performance status ≦2; hematocrit ≧30; serum creatinine ≦1.2 mg/dL; serum calcium ≦10.5 mg/dL; serum phosphate <4.2 mg/dL; ALT ≦60 IUIL; total serum bilirubin <2 mg/dL. Exclusion criteria included pregnancy, history of hypercalcemia, kidney stones, heart failure or significant heart disease including myocardial infarction in the last 3 months, known cardiac ejection fraction less than 30%, current digoxin therapy, thiazide diuretic therapy within 7 days, bisphosphonate treatment within 4 weeks, systemic steroid therapy within 2 weeks, and unwillingness or inability to stop all magnesium containing antacids, bile resin binding drugs, or calcium supplements for the duration of the study.
# (§2) Patients were asked to maintain a reduced calcium diet for the four treatment weeks, with a goal of less than 500 mg per day, as described in Example 1. Calcitriol (Rocaltrol®, Roche Pharmaceuticals) was given orally once a week for four weeks. Each weekly dose was given in four divided doses given hourly over four hours. The starting dose was 0.06 μg/kg.
# (§3) Complete blood count, serum creatinine, total serum bilirubin, ALT, alkaline phosphatase were monitored weekly. Serum calcium and phosphate were checked on the treatment day (day 1), and on days 2 and 3. Twenty-four hour urinary calcium excretion was measured on day 2. The 1,25-dihydroxyvitaunin D levels were measured by ^125I radioimmunoassay (Incstar, Stillwater, Minn.) and by a radioreceptor assay using calf thymus 1,25-dihydroxyvitamin D receptor (Endocrine Sciences, Calabasas Hills, Calif.). Peak levels were measured two hours after all the pills had been ingested. Trough levels were measured approximately 48 hours later.
# After completing the four week treatment period, patients were monitored for four additional weeks. Serum calcium was checked in weeks 5 and 7 and tumor measurements were obtained in week 7. […] Response was assessed according to WHO guidelines. […]
# [2] = Trial of weekly pulse oral calcitriol: plasma/serum 1,25-dihydroxyvitamin D levels (radioimmunoassay, radioreceptor assay); type: in vivo, human; design: Mean 48 hour 1,25-dihydroxyvitamin D level: unit not given here; settings: for Mean peak 1,25-dihydroxyvitamin D level: peak two hours after all pills; for Mean 48 hour 1,25-dihydroxyvitamin D level: trough approximately 48 hours later
# Experimental: In this example a person with metastatic malignant melanoma of the right jaw received a dose of 37 mcg of calcitriol (Rocaltrol, Roche) administered as 74 tablets (0.5 mcg each tablet) divided into four nearly equal doses given in hour one, two, three and four. The patient received this same therapy on day 1, 8, 15 and 22, and observed until at least day 56. The level of calcitriol in a plasma sample obtained two hours after the last dose of calcitriol (on week one) was determined using a commercial assay at Endocrine Sciences, Inc. The level was 1826 pg/ml, compared to the range for calcitriol levels in normal controls being 21 to 65 pg/ml.
# as §2, §3
# [3] = Trial of weekly pulse oral calcitriol: serum calcium, serum phosphate, 24 hour urinary calcium; type: in vivo, human; settings: for Mean serum phosphate: 3.43 (SD 0.56) prior to treatment; for Mean serum calcium: 9.55 (SD 0.57) prior to treatment
# Experimental: as §2, §3
# [4] = test system: malignancy refractory to standard therapy; experiment: Trial of weekly pulse oral calcitriol: tumor response (WHO guidelines, tumor markers); type: in vivo, human
# Experimental: as §1, §2
# After completing the four week treatment period, patients were monitored for four additional weeks. Serum calcium was checked in weeks 5 and 7 and tumor measurements were obtained in week 7. All toxicities were graded according to NCI Common Toxicity Criteria. Response was assessed according to WHO guidelines.
# [5] = test system: breast carcinoma metastatic to the skeleton; experiment: Case history: treatment of breast cancer with weekly pulse calcitriol; type: in vivo, human; settings: 11 mcg po on day 1, 8, 15, 22; for serum tumor marker CA15-3: 445 pre-treatment
# Excerpt: In this example, a person with breast carcinoma metastatic to numerous sites in the skeleton received a dose of 11 mcg of calcitriol (Rocaltrol, Roche) administered as […] (0.5 mcg each tablet) divided into four nearly equal doses given in hour one, two, three and four. The patient received this same therapy on day 1, 8, 15 and 22, and then was observed on study until day 56, and tolerated the treatment well. […] Objective benefits included a progressive decrease in the serum tumor marker CA15-3 from 445 (pre-treatment) to 365 (day 27), 365 (day 48) and 320 (day 70). […] No new lesions or pathologic fractures identified were identified by day 64.
# [6] = relative to calcitriol = 1; cited from earlier work
# [7] = test system: LNCaP human prostate cancer cells; settings: LNCaP cells in vitro, Skowronski et al., cited from earlier work
# [8] = cited from earlier work
# myelodysplastic syndrome = settings: 2 mcg daily for 8 weeks or longer, cited from earlier work
# [9] = test system: hormone refractory prostate cancer; settings: daily oral dose of 0.5-1.5 mcg, fourteen patients; cited from earlier work
# ovarian cancer = settings: continuous dose; cited from earlier work
# [10] = single oral dose of 4 mcg, healthy volunteers, Mason et al.
compound,measurement,setting,value
"C=C1/C(=C\C=C2/CCC[C@]3(C)[C@@H]([C@H](C)CCCC(C)(C)O)CC[C@@H]23)C[C@@H](O)C[C@@H]1O [calcitriol, 1α,25-dihydroxycholecalciferol]",deaths in the trial,"[1]; 15 patients, 20 cycles",No deaths occurred
same,intermittent dose tolerated without hypercalcemia,[1]; given intermittently,≤ 0.48 µg/kg
same,dose-limiting hypercalcemic toxicity,[1]; in vivo,No patient developed dose-limiting hypercalcemic toxicity
same,"Serum 1,25-dihydroxyvitamin D trough levels","[2]; 48 hours, normal range 0.05-0.16 nM",returned to normal or near normal levels by 48 hours
same,"Mean peak 1,25-dihydroxyvitamin D level","[2]; dose level 0.06 μg/kg po over four hours, 1 patient",0.71 nM
same,"Mean 48 hour 1,25-dihydroxyvitamin D level",[2]; dose level 0.06 μg/kg po,0.27
same,"Mean peak 1,25-dihydroxyvitamin D level","[2]; dose level 0.24 μg/kg po over four hours, 1 patient",2.27 nM
same,"Mean 48 hour 1,25-dihydroxyvitamin D level",[2]; dose level 0.24 μg/kg po,0.21
same,"Mean peak 1,25-dihydroxyvitamin D level","[2]; dose level 0.48 μg/kg po over four hours, 2 patients",4.11 nM
same,"Mean 48 hour 1,25-dihydroxyvitamin D level",[2]; dose level 0.48 μg/kg po,0.23
same,"Mean peak 1,25-dihydroxyvitamin D level","[2]; dose level 0.80 μg/kg po over four hours, 1 patient",3.53 nM
same,"Mean peak 1,25-dihydroxyvitamin D level","[2]; dose level 0.96 μg/kg po over four hours, 1 patient",3.83 nM
same,"Mean peak 1,25-dihydroxyvitamin D level","[2]; dose level 1.60 μg/kg po over four hours, 2 patients",3.65 nM
same,"Mean peak 1,25-dihydroxyvitamin D level","[2]; dose level 1.92 μg/kg po over four hours, 1 patient",3.34 nM
same,"Mean peak 1,25-dihydroxyvitamin D level","[2]; dose level 2.00 μg/kg po over four hours, 6 patients",4.07 nM
same,"Mean 48 hour 1,25-dihydroxyvitamin D level",[2]; dose level 2.00 μg/kg po,0.26
same,"Mean peak 1,25-dihydroxyvitamin D level","[2]; dose level 2.80 μg/kg po over four hours, 2 patients",2.96 nM
same,effect of dose escalation beyond 0.48 μg/kg on peak calcitriol levels,[2]; dose levels up to 2.80 μg/kg po,did not result in further increases in peak calcitriol levels
same,concentration at 2 h,"[2]; male, human, plasma, melanoma patient, 37 mcg po in four hourly doses, sample two hours after the last dose, week one, normal controls 21 to 65 pg/ml, read-out: level of calcitriol in plasma",1.83 ng/mL
same,Peak blood levels of calcitriol above the upper limit of normal,[2]; pulsed weekly administration,about 25 fold
same,clearance of calcitriol from the blood,[2]; weekly pulse schedule,essentially completely cleared from the blood by day 3
same,peak blood calcitriol levels in patients,"[2]; weekly pulse schedule, highest level seen",up to 8.9 nM
same,"serum calcium and other chemical and hematological parameters, melanoma patient","[3]; 37 mcg po on day 1, 8, 15, 22",remained normal
same,Mean serum phosphate,"[3]; 24 hours after dose, normal range 2.2-4.2",3.98 (SD 0.57) mg/dL
same,Mean serum calcium,"[3]; 24 hours after dose, normal range 8.5-10.5",9.76 (SD 0.63) mg/dL
same,Mean serum phosphate,"[3]; 48 hours after dose, p<0.0001",3.86 (SD 0.53) mg/dL
same,Mean serum calcium,"[3]; 48 hours after dose, p=0.0002",9.88 (SD 0.68) mg/dL
same,time for calcium levels above the normal range to return to normal,[3]; no intervention,≤ 2 days
same,"24 hour urinary calcium excretion, range","[3]; on treatment, day 2 of each treatment week, 44-292 prior to treatment",59 to 594 mg
same,Mean 24 hour urinary calcium excretion,"[3]; on treatment, day 2 of each treatment week, 130 (SD 62) prior to treatment, normal range 100-300",263 (SD 125) mg
same,decline in serum AFP level,"[4]; hepatocellular carcinoma patient, two cycles (0.80 and 1.60 μg/kg)",70%
same,patients with measurable disease with evidence of progressive disease,[4]; of eight patients,three
same,patients without measurable disease with tumor marker or clinical evidence of progressive disease,[4]; of seven patients,three
same,PSA course in a prostate cancer patient,"[4]; two cycles of therapy, rapidly rising PSA prior to enrollment",stable PSA for the entire 16 weeks
same,patients without measurable disease with no evidence of progression,[4]; weekly pulse calcitriol,Four of seven
same,patients with measurable disease who had stable disease,"[4]; weekly pulse calcitriol, tumor measurements week 7",Five of eight
same,Radiologic evaluation of areas of known bony involvement,[5],progressive sclerosis of multiple lesions in the pelvis and right hip
same,Subjective beneficial effects,[5],a reduction in pain and in analgesia required
same,serum tumor marker CA15-3,[5]; day 27,365
same,serum tumor marker CA15-3,[5]; day 48,365
same,serum tumor marker CA15-3,[5]; day 70,320
same,calcemic index (CI),[6],1
same,concentration giving measurable growth inhibition,[7],0.1 nM
same,IC50,[7]; read-out: concentration giving 50% growth inhibition,1 nM
same,"peak 1,25-dihydroxyvitamin D serum concentrations","[8]; 2 mcg single oral dose, healthy volunteers, Papapoulus et al.",0.235 nM and 0.351 nM
same,patients with a serum calcium above 10.8,"[8]; 4 mcg per day for 4 days, postmenopausal women, no clinically significant hypercalcemia, Geusens et al.",Four of the 27
same,"peak of stable serum levels of 1,25-dihydroxyvitamin D","[8]; 32 mcg/day for 3 months, patients with osteopetrosis, no hypercalcemia, Key et al.",2.32 nM
same,duration of hypercalcemic effect,[8]; in vivo,3 to 5 days
same,serum half life,[8]; in vivo,3 to 6 h
same,time after administration at which intestinal absorption of calcium begins to increase,[8]; in vivo,2 h
same,time of maximal hypercalcemic effect,[8]; in vivo,10 h
same,time at which peak serum concentration is reached,[8]; replacement therapy doses,2 h
same,"peak 1,25-dihydroxyvitamin D serum concentrations",[8]; [10],0.42 nM
same,serum calcium,[8]; [10],no elevation in serum calcium
same,serum calcium,"[8]; up to 2.7 mcg/day for 7 to 15 days, normal volunteers, Brickman et al.",no significant elevations in serum calcium were observed
same,"stable 1,25-dihydroxyvitamin D serum levels","[8]; up to 3 mcg/day for 6-12 days, normal volunteers, Adams et al.",0.184 to 0.235 nM
same,elevation in serum calcium,"[8]; up to 3 mcg/day for 6-12 days, patients on a low calcium diet, Adams et al.",None of the patients
same,patients who experienced symptomatic hypercalcemia,myelodysplastic syndrome; 18 patients,4
same,patients with minor and transient improvements in the peripheral blood counts,myelodysplastic syndrome,Eight of 18
same,patients who experienced hypercalcemia,[9],Thirteen
same,response,[9],no significant response was demonstrated
same,hypercalcemia,ovarian cancer,encountered hypercalcemia
